Measurements reported in article PMC11953117 (Cancer Chemotherapy and Pharmacology, 2025).
Read-outs that look alike come from different tables or passages of the source.

Assay: Capivasertib exposure metrics at steady state projected with PopPK model, patients with solid tumors
Type: in vivo
Settings: human, plasma, oral; for concentration at 12 h: read-out: Cmin
Method: Study 1 (NCT01226316) was a phase 1 open-label multipart study. […] The duration of the treatment cycles was 21 days. […] [18]. […] [18, 25, 39].
Study 4 (NCT01353781) was a phase 1 dose-escalation study in Japanese patients with advanced solid malignancies.
The exposure–response analyses were conducted using a subset of patients from the PopPK analysis where capivasertib was used as monotherapy. […] As different schedules were assessed between and within studies, the exposure metrics were derived for the last dose of the last dosing day in the second week of treatment (i.e. on days 14, 11, and 9 for the continuous, [4/3] and [2/5] schedules, respectively), to ensure SS conditions, using the planned dose. […] The relative dose intensity (RDI) was calculated as the percentage of the average weekly dose relative to the PWD to examine the tolerability of capivasertib monotherapy at the given dosing schedules.

[1] = 80 mg, Study 1, Continuous BID, PWD 1120 mg, N=5, median (range)
[2] = 80 mg, Study 4 (Japanese patients), Continuous BID, PWD 1120 mg, N=3, median (range)
[3] = 240 mg, Study 4 (Japanese patients), Continuous BID, PWD 3360 mg, N=7, median (range)
[4] = 320 mg, Study 4 (Japanese patients), Continuous BID, PWD 4480 mg, N=6, median (range)
[5] = 360 mg, Study 4 (Japanese patients), [4/3] BID, PWD 2880 mg, N=8, median (range)
[6] = 400 mg, Study 4 (Japanese patients), Continuous BID, PWD 5600 mg, N=5, median (range)
[7] = 480 mg, OAK, [4/3] BID, PWD 3840 mg, N=30, median (range)
[8] = 480 mg, Study 1, [4/3] BID, PWD 3840 mg, N=127, median (range)
[9] = 480 mg, Study 4 (Japanese patients), [4/3] BID, PWD 3840 mg, N=6, median (range)

NC1(C(=O)N[C@@H](CCO)c2ccc(Cl)cc2)CCN(c2ncnc3[nH]ccc23)CC1 [capivasertib, 4-amino-N-[(1S)-1-(4-chlorophenyl)-3-hydroxypropyl]-1-(7H-pyrrolo[2,3-d]pyrimidin– 4-yl)piperidine-4-carboxamide]
AUC (80 mg, Study 1, Continuous BID, 80 mg, PWD 1120 mg, N=5, median (range), read-out: AUCss(0–12 h)): 870 ng·h/mL
concentration at 12 h (80 mg, Study 1, Continuous BID, 80 mg, PWD 1120 mg, N=5, median (range)): 30 ng/mL
AUC at 1 week [1]: 12200 ng·h/mL
Cmax [1]: 150 ng/mL
AUC (80 mg, Study 4 (Japanese patients), Continuous BID, 80 mg, PWD 1120 mg, N=3, median (range), read-out: AUCss(0–12 h)): 1480 ng·h/mL
concentration at 12 h (80 mg, Study 4 (Japanese patients), Continuous BID, 80 mg, PWD 1120 mg, N=3, median (range)): 60 ng/mL
AUC at 1 week [2]: 20700 ng·h/mL
Cmax [2]: 220 ng/mL
AUC (160 mg, Study 1, Continuous BID, 160 mg, PWD 2240 mg, N=5, median (range), read-out: AUCPWD): 41800 ng·h/mL
AUC (160 mg, Study 1, Continuous BID, 160 mg, PWD 2240 mg, N=5, median (range), read-out: AUCss(0–12 h)): 2990 ng·h/mL
concentration at 12 h (160 mg, Study 1, Continuous BID, 160 mg, PWD 2240 mg, N=5, median (range)): 110 ng/mL
Cmax (160 mg, Study 1, Continuous BID, PWD 2240 mg, N=5, median (range)): 420 ng/mL
AUC (240 mg, Study 1, Continuous BID, 240 mg, PWD 3360 mg, N=6, median (range), read-out: AUCPWD): 44700 ng·h/mL
AUC (240 mg, Study 1, Continuous BID, 240 mg, PWD 3360 mg, N=6, median (range), read-out: AUCss(0–12 h)): 3190 ng·h/mL
concentration at 12 h (240 mg, Study 1, Continuous BID, 240 mg, PWD 3360 mg, N=6, median (range)): 110 ng/mL
Cmax (240 mg, Study 1, Continuous BID, PWD 3360 mg, N=6, median (range)): 530 ng/mL
AUC (240 mg, Study 4 (Japanese patients), Continuous BID, 240 mg, PWD 3360 mg, N=7, median (range), read-out: AUCss(0–12 h)): 5220 ng·h/mL
concentration at 12 h (240 mg, Study 4 (Japanese patients), Continuous BID, 240 mg, PWD 3360 mg, N=7, median (range)): 170 ng/mL
AUC at 1 week [3]: 73000 ng·h/mL
Cmax [3]: 820 ng/mL
AUC (320 mg, Study 1, Continuous BID, 320 mg, PWD 4480 mg, N=12, median (range), read-out: AUCPWD): 82000 ng·h/mL
AUC (320 mg, Study 1, Continuous BID, 320 mg, PWD 4480 mg, N=12, median (range), read-out: AUCss(0–12 h)): 5860 ng·h/mL
concentration at 12 h (320 mg, Study 1, Continuous BID, 320 mg, PWD 4480 mg, N=12, median (range)): 200 ng/mL
Cmax (320 mg, Study 1, Continuous BID, PWD 4480 mg, N=12, median (range)): 870 ng/mL
AUC (320 mg, Study 4 (Japanese patients), Continuous BID, 320 mg, PWD 4480 mg, N=6, median (range), read-out: AUCss(0–12 h)): 6560 ng·h/mL
concentration at 12 h (320 mg, Study 4 (Japanese patients), Continuous BID, 320 mg, PWD 4480 mg, N=6, median (range)): 150 ng/mL
AUC at 1 week [4]: 91800 ng·h/mL
Cmax [4]: 1380 ng/mL
AUC (360 mg, Study 4 (Japanese patients), [4/3] BID, 360 mg, PWD 2880 mg, N=8, median (range), read-out: AUCss(0–12 h)): 6100 ng·h/mL
concentration at 12 h (360 mg, Study 4 (Japanese patients), [4/3] BID, 360 mg, PWD 2880 mg, N=8, median (range)): 210 ng/mL
AUC at 1 week [5]: 48800 ng·h/mL
Cmax [5]: 960 ng/mL
AUC (400 mg, Study 1, Continuous BID, 400 mg, PWD 5600 mg, N=11, median (range), read-out: AUCPWD): 81000 ng·h/mL
AUC (400 mg, Study 1, Continuous BID, 400 mg, PWD 5600 mg, N=11, median (range), read-out: AUCss(0–12 h)): 5790 ng·h/mL
concentration at 12 h (400 mg, Study 1, Continuous BID, 400 mg, PWD 5600 mg, N=11, median (range)): 190 ng/mL
Cmax (400 mg, Study 1, Continuous BID, PWD 5600 mg, N=11, median (range)): 900 ng/mL
AUC (400 mg, Study 4 (Japanese patients), Continuous BID, 400 mg, PWD 5600 mg, N=5, median (range), read-out: AUCss(0–12 h)): 7750 ng·h/mL
concentration at 12 h (400 mg, Study 4 (Japanese patients), Continuous BID, 400 mg, PWD 5600 mg, N=5, median (range)): 270 ng/mL
AUC at 1 week [6]: 109000 ng·h/mL
Cmax [6]: 1240 ng/mL
AUC (480 mg, OAK, [4/3] BID, 480 mg, PWD 3840 mg, N=30, median (range), read-out: AUCss(0–12 h)): 9750 ng·h/mL
concentration at 12 h (480 mg, OAK, [4/3] BID, 480 mg, PWD 3840 mg, N=30, median (range)): 330 ng/mL
AUC at 1 week [7]: 78000 ng·h/mL
Cmax [7]: 1580 ng/mL
AUC (480 mg, Study 1, Continuous BID, 480 mg, PWD 6720 mg, N=6, median (range), read-out: AUCPWD): 140000 ng·h/mL
AUC (480 mg, Study 1, Continuous BID, 480 mg, PWD 6720 mg, N=6, median (range), read-out: AUCss(0–12 h)): 9980 ng·h/mL
concentration at 12 h (480 mg, Study 1, Continuous BID, 480 mg, PWD 6720 mg, N=6, median (range)): 370 ng/mL
Cmax (480 mg, Study 1, Continuous BID, PWD 6720 mg, N=6, median (range)): 1620 ng/mL
AUC (480 mg, Study 1, [4/3] BID, 480 mg, PWD 3840 mg, N=127, median (range), read-out: AUCss(0–12 h)): 9690 ng·h/mL
concentration at 12 h (480 mg, Study 1, [4/3] BID, 480 mg, PWD 3840 mg, N=127, median (range)): 330 ng/mL
AUC at 1 week [8]: 77400 ng·h/mL
Cmax [8]: 1590 ng/mL
AUC (480 mg, Study 4 (Japanese patients), [4/3] BID, 480 mg, PWD 3840 mg, N=6, median (range), read-out: AUCss(0–12 h)): 10800 ng·h/mL
concentration at 12 h (480 mg, Study 4 (Japanese patients), [4/3] BID, 480 mg, PWD 3840 mg, N=6, median (range)): 290 ng/mL
AUC at 1 week [9]: 86800 ng·h/mL
Cmax [9]: 1880 ng/mL
AUC (600 mg, Study 1, Continuous BID, 600 mg, PWD 8400 mg, N=2, median (range), read-out: AUCss(0–12 h)): 14300 ng·h/mL
concentration at 12 h (600 mg, Study 1, Continuous BID, 600 mg, PWD 8400 mg, N=2, median (range)): 460 ng/mL
AUC at 1 week (600 mg, Study 1, Continuous BID, PWD 8400 mg, N=2, median (range)): 200000 ng·h/mL
